Patent US20240374610A1, “METHOD AND PHARMACEUTICAL COMPOSITION FOR TREATING OR ALLEVIATING GLIOMAS IN A SUBJECT” (Zhejiang University, priority 2023, published 2024)

Experiments:
[1] = test system: CKO model-derived glioma cell lines 1483 and 1877; assay: Proliferation rate of CKO model-derived glioma cell lines (EdU incorporation assay); type: cell-based, mouse; conditions: for proliferation of tumor OPCs: 200 μM glutamate, 200 μM GABA or 15 mM KCl vs control, cell lines 1483 and 1877
Text: Cell lines were authenticated by tdTomato marker when histology analyzing. All cell lines tested negative for mycoplasma contamination.

peripheral immune cells = assay: Immune cells in peripheral blood under clozapine (FACS); type: in vivo, mouse; conditions: clozapine by oral or i.p. administration, three weeks
Protocol: Blood was collected by intracardial puncture from anaesthetized mice into heparinized 1 ml syringes. Heparin was used in a range of 30 units/ml. Red blood cells were lysed in ACK lysing buffer (Gibco, A10492) at room temperature for 5 min. Cell suspensions were spun down at 300 g for 5 min. The cell pellet was then washed with Hank's balanced salt solution (HBSS) and spun for 5 min at 300 g. The cells in the pellet (1-2×10^5 cells) were used in fluorescence assays. Antibodies used for flow cytometry were directed against the following mouse antigens: Pacific Blue anti-mouse CD45(30-F11), PE anti-mouse Ly-6G(1A8), PerCP/Cyanine5.5 anti-mouse CD11c, FITC anti-mouse CD19(1D3), APC anti-mouse CD3(17A2), APC/Cyanine7 anti-mouse/human CD11b(M1/70) from Biolegend. Dilution: 1: 200.

blood-brain-barrier = assay: Evans Blue dye assay of blood-brain barrier integrity; type: in vivo, mouse; conditions: WT mice, clozapine by drinking water or i.p.
Protocol: The protocol was adapted from Ludewig et al.^42 with some modifications. Mice were administrated with 200 μL Evans Blue (2%) by i.p injection. After six hours of EB injection, the mice were anaesthetized and then perfused with cold PBS. 100 mg tissue for each sample from multiple organs (as indicated in the FIG. 9g) was collected in 500 μL PBS and ground into tissue homogenate. 500 μL formamide was then add to the homogenate before being incubated in the 55° C. for 24 hours. After centrifugation, supernatants were collected for optical density detecting at 620 nm.

local resident microglia = assay: Granulocytes and macrophage/microglia in the brain under clozapine (CD15, Iba1, CD68 staining); type: in vivo, mouse
Protocol: All mouse frozen tissues were cryo-sectioned into 20 μm thickness. For routine staining, the slides were fixed in ice-cold 2% PFA for 15 minutes. After washed in 1×PBS (3 times, 10 minutes each), the slides were briefly rinsed with 1×PBT (0.3% Triton X-100 in 1×PBS) and then incubated with the blocking solution (5% normal donkey serum, 0.3% Triton X-100, 0.1% NaN3 in 1×PBS) for 20 minutes. The slides mounted with primary antibodies were then incubated in the wet box at 4° C. overnight. Next day, the slides were washed in 1×PBT (4 times, 10 minutes each) before incubated with secondary antibodies (diluted in 1×PBT) in foil-wrapped wet box at 4° C. overnight. The third day, the slides were washed in 1×PBT (4 times, 10 minutes each) and DAPI solution (25 ng/ml in 1×PBS, 20 minutes). After washing with 1×PBS for 5 minutes, the slides were mounted with the mounting solution (65% glycerol in 1×PBS) and covered with coverslips.

[2] = test system: glioma cells from the CKO model; assay: RNA-Seq of glioma cells co-cultured with primary OB neurons and stimulated by IGF-1; type: cell-based, mouse; conditions: co-cultures stimulated by 20 ng/mL IGF-1
Protocol: OBs were dissected from P2-3 mouse pups and digested in 10 mL papain solution (1×EBSS (Sigma, E7510), 0.5 mM EDTA, 10 mM HEPES, 26 mM NaHCO3, 22.5 mM D(+)-glucose, 0.16 mg/mL L-cycteine, 20 units/mL papain (Worthington Biochem, LS003126), 250 μg/mL DNase I (Sigma, DN-25) in dd-water) for 30 min at 37° C. Papain solution was discarded and the tissue was triturated with 2 mL Diluted Trypsin Inhibitor Buffer (1×EBSS (Sigma, E7510), 10 mM HEPES, 26 mM NaHCO3, 1× ovomucoid (Worthington Biochem, LS003086), 250 μg/mL DNase I (Sigma, DN-25), 1 mg/mL BSA (equitech-bio, BAH62) in dd-water) by 1 mL pipette and was allowed to settle for 2 min. 1 mL upper cell suspension was carefully collected and additional 1 mL Diluted Trypsin Inhibitor Buffer was add to the tissue. The process was repeated until all Diluted Trypsin Inhibitor Buffer was consumed. […]
For sequencing of tumor cells from co-cultures, raw data was filtered by removing adapter with Cutadapt (Version 3.4) and quality control (not lower than 25). Clean reads were aligned to the reference genome Mus_musculus.GRCm39.dna.primary_assembly.fa (39.103) from Ensembl by STAR (Version 2.7.9a). Read counts were calculated by featureCounts (Version 2.0.1). The feature was selected as Exon, and only reads with mapping quality score greater than 25 were retained. […]

## O=[N+]([O-])c1cc2nc(O)c(O)nc2cc1[N+](=O)[O-] [DQNX]
[1]; 20 ng/mL IGF-1 plus 10 μM AMPA-receptor antagonist vs IGF-1 alone
  IGF1-promoted proliferation of tumor OPCs: did not affect

## NCCCC(=O)O [GABA]
[1]
  proliferation of tumor OPCs: did not affect

## N[C@@H](CCC(=O)O)C(=O)O [Glutamate]
[1]
  proliferation of tumor OPCs: did not affect

## CN1CCN(C2=Nc3cc(Cl)ccc3Nc3ccccc32)CC1 [clozapine]
Peripheral immune cells
  number of granulocytes in peripheral blood: slightly but significantly reduced
  number of macrophages in peripheral blood: increased
blood-brain-barrier
  integrity of the blood-brain-barrier: did not affect the integrity
Local resident microglia; CKO model regardless of tumor stage, Iba1+ and CD68+ Iba1+
  number or activation of local resident microglia: not affected
Local resident microglia; WT, Omp-hM3Dq, Omp-hM4Di and CKO tumor mice with clozapine treatment
  granulocytes (CD15) in the brain parenchyma: barely any granulocytes could be found

## [Cl-].[K+] [potassium chloride]
[1]
  proliferation of tumor OPCs: did not affect

## insulin-like growth factor-1 [IGF-1]
[1]; 20 ng/mL IGF-1, glioma cell lines 1483 and 1877
  proliferation of tumor OPCs in vitro: significantly stimulated the proliferation
[2]
  expression of RTK downstream genes such as Egr3/4 and Fosl2: significant upregulation
  expression of neurotransmitter receptor genes including AMPARs in tumor OPCs: did not affect the expression
